From patent publication US12077537B2 (Gilead Sciences, Inc., priority 2020, dated 2024)

System: HIV-IIIb
Test: Antiviral assay in MT4 cells
Type: cell-based
Details: Human immunodeficiency virus 1, MT4, 120 h; MT-4 cells mixed with HIV-IIIb at m.o.i. 0.003; 5 days at 37° C.; CellTiter-Glo luminescence; 50% decrease in signal, a measure of HIV-1 replication
In short: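 Compound, tested at ten 3-fold dilutions in quadruplicate in 10% FBS medium, received MT-4 cells pre-mixed 1 hour with HIV-IIIb (m.o.i. 0.003). Protection was read as luminescent cell viability (CellTiter-Glo) after 5 days' culture at 37° C.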

Row | SMILES | EC50 [µM]
1 | Cn1nc(NS(C)(=O)=O)c2cccc(-c3cc4sc(N5CCC6(CC5)CNC(=O)O6)nc4nc3[C@H](Cc3cc(F)cc(F)c3)NC(=O)Cn3nc(C(F)(F)F)c4c3C(F)(F)[C@@H]3C[C@H]43)c21 [Example 80, 2-((3bS,4aR)-5,5-difluoro-3-(trifluoromethyl)-3b,4,4a,5-tetrahydro-1H-cyclopropa[3,4]cyclopenta[1,2-c]pyrazol-1-yl)-N—((S)-2-(3,5-difluorophenyl)-1-(6-(1-methyl-3-(methylsulfonamido)-1H-indazol-7-yl)-2-(2-oxo-1-oxa-3,8-diazaspiro[4.5]decan-8-yl)thiazolo[4,5-b]pyridin-5-yl)ethyl)acetamide] | 0.0248
2 | Cn1nc(NS(C)(=O)=O)c2cccc(-c3cc4sc(NC5(C)CC5)nc4nc3[C@H](Cc3cc(F)cc(F)c3)NC(=O)Cn3nc(C(F)(F)F)c4c3C(F)(F)[C@@H]3C[C@H]43)c21 [Example 81, 2-((3bS,4aR)-5,5-difluoro-3-(trifluoromethyl)-3b,4,4a,5-tetrahydro-1H-cyclopropa[3,4]cyclopenta[1,2-c]pyrazol-1-yl)-N—((S)-2-(3,5-difluorophenyl)-1-(6-(1-methyl-3-(methylsulfonamido)-1H-indazol-7-yl)-2-((1-methylcyclopropyl)amino)thiazolo[4,5-b]pyridin-5-yl)ethyl)acetamide] | 0.0186
3 | Cn1nc(NS(C)(=O)=O)c2cccc(-c3cc4sc(N5CCOCC5)nc4nc3[C@H](Cc3cc(F)cc(F)c3)NC(=O)Cn3nc(C(F)(F)F)c4c3C(F)(F)[C@@H]3C[C@H]43)c21 [Example 82, 2-((3bS,4aR)-5,5-difluoro-3-(trifluoromethyl)-3b,4,4a,5-tetrahydro-1H-cyclopropa[3,4]cyclopenta[1,2-c]pyrazol-1-yl)-N—((S)-2-(3,5-difluorophenyl)-1-(6-(1-methyl-3-(methylsulfonamido)-1H-indazol-7-yl)-2-morpholinothiazolo[4,5-b]pyridin-5-yl)ethyl)acetamide] | 0.0066

Continued, values first:

Row | EC50 [µM] | SMILES
4 | 0.0523 | Cn1nc(NS(C)(=O)=O)c2cccc(-c3cc4sc(N5CCN(C(=O)C(C)(C)N)CC5)nc4nc3[C@H](Cc3cc(F)cc(F)c3)NC(=O)Cn3nc(C(F)(F)F)c4c3C(F)(F)[C@@H]3C[C@H]43)c21 [Example 83, N—((S)-1-(2-(4-(2-amino-2-methylpropanoyl)piperazin-1-yl)-6-(1-methyl-3-(methylsulfonamido)-1H-indazol-7-yl)thiazolo[4,5-b]pyridin-5-yl)-2-(3,5-difluorophenyl)ethyl)-2-((3bS,4aR)-5,5-difluoro-3-(trifluoromethyl)-3b,4,4a,5-tetrahydro-1H-cyclopropa[3,4]cyclopenta[1,2-c]pyrazol-1-yl)acetamide]
5 | 0.0099 | Cn1nc(NS(C)(=O)=O)c2cccc(-c3cc4sc(N5CCC6(CC5)CNC6=O)nc4nc3[C@H](Cc3cc(F)cc(F)c3)NC(=O)Cn3nc(C(F)(F)F)c4c3C(F)(F)[C@@H]3C[C@H]43)c21 [Example 84, 2-((3bS,4aR)-5,5-difluoro-3-(trifluoromethyl)-3b,4,4a,5-tetrahydro-1H-cyclopropa[3,4]cyclopenta[1,2-c]pyrazol-1-yl)-N—((S)-2-(3,5-difluorophenyl)-1-(6-(1-methyl-3-(methylsulfonamido)-1H-indazol-7-yl)-2-(1-oxo-2,7-diazaspiro[3.5]nonan-7-yl)thiazolo[4,5-b]pyridin-5-yl)ethyl)acetamide]
6 | 0.0218 | Cn1nc(NS(C)(=O)=O)c2cccc(-c3cc4sc(N5CC6(CCN6)C5)nc4nc3[C@H](Cc3cc(F)cc(F)c3)NC(=O)Cn3nc(C(F)(F)F)c4c3C(F)(F)[C@@H]3C[C@H]43)c21 [Example 85, 2-((3bS,4aR)-5,5-difluoro-3-(trifluoromethyl)-3b,4,4a,5-tetrahydro-1H-cyclopropa[3,4]cyclopenta[1,2-c]pyrazol-1-yl)-N—((S)-2-(3,5-difluorophenyl)-1-(6-(1-methyl-3-(methylsulfonamido)-1H-indazol-7-yl)-2-(1,6-diazaspiro[3.3]heptan-6-yl)thiazolo[4,5-b]pyridin-5-yl)ethyl)acetamide]
